Assay results published in US20250019387A1 (Frontier Medicines Corporation, priority 0001, published 2025).

Each compound was assayed against KRAS G12C and cRAF (Ras-binding domain) interaction (Homo sapiens (Human), UniProt P01116, C118S/C51S/C80L/G12C) (assay: Inhibition of KRAS G12C and cRAF binding (AlphaScreen)). Details: GMPPNP-loaded KRAS G12C, 19-20 hours incubation with compound; read-out: IC50 (Inhibition of KRAS G12C and cRAF Binding).
Outline: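 IC50 values come from 4-parameter nonlinear regression of AlphaScreen signal (680 nm excitation, 570 nm emission). Compound plates sat 19-20 h at room temperature before RBD and donor/acceptor beads were added in Hepes pH 7.4 buffer with 150 mM NaCl, 5 mM MgCl2, 2% DMSO for 60-90 min; biotin-AviTag-GST replaced RBD to flag assay-technology interferers.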

Chain of KRAS G12C and cRAF (Ras-binding domain) interaction (P01116 other isoform, or with tags, fused parts or gaps G12C/C51S/C80L/C118S): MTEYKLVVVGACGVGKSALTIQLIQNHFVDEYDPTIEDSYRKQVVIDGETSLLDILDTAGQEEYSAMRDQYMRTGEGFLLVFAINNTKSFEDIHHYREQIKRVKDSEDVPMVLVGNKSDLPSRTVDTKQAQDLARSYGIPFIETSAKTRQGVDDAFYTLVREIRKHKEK

Compound	IC50
CN1CCC[C@H]1COc1nc2c(c(N3CCC(CNC#N)CC3)n1)CCN(c1cccc3cccc(Cl)c13)C2 [Example 32, (S)-N-((1-(7-(8-chloronaphthalen-1-yl)-2-((1-methylpyrrolidin-2-yl)methoxy)-5,6,7,8-tetrahydropyrido[3,4-d]pyrimidin-4-yl)piperidin-4-yl)methyl)cyanamide]	> 500 nM
COC(=O)/C=C/C(=O)N1CC[C@@H](N(C)c2nc(OC[C@@H]3CCCN3C)nc3c2CCN(c2cccc4cccc(Cl)c24)C3)C1 [Example 10, methyl(E)-4-((R)-3-((7-(8-chloronaphthalen-1-yl)-2-(((S)-1-methylpyrrolidin-2-yl)methoxy)-5,6,7,8-tetrahydropyrido[3,4-d]pyrimidin-4-yl)(methyl)amino)pyrrolidin-1-yl)-4-oxobut-2-enoate]	10 to 100 nM
COC(=O)/C=C/C(=O)N1CC[C@@H](N(C)c2nc(OC[C@@H]3CCCN3C)nc3c(F)c(-c4cccc5cccc(Cl)c45)ncc23)C1 [Example 27, methyl(E)-4-((R)-3-((7-(8-chloronaphthalen-1-yl)-8-fluoro-2-(((S)-1-methylpyrrolidin-2-yl)methoxy)pyrido[4,3-d]pyrimidin-4-yl)(methyl)amino)pyrrolidin-1-yl)-4-oxobut-2-enoate]	< 10 nM
CN(CC1CN(C(=O)/C=C/c2nc(C(F)F)no2)C1)c1nc(OCC23CCCN2CCC3)nc2c1CCN(c1cccc3cccc(Cl)c13)C2 [Example 150, (E)-1-(3-(((7-(8-chloronaphthalen-1-yl)-2-((hexahydro-1H-pyrrolizin-7a-yl)methoxy)-5,6,7,8-tetrahydropyrido[3,4-d]pyrimidin-4-yl)(methyl)amino)methyl)azetidin-1-yl)-3-(3-(difluoromethyl)-1,2,4-oxadiazol-5-yl)prop-2-en-1-one]	< 10 nM
CN(CCNC(=O)/C=C/C(=O)O)c1nc(OC[C@@H]2CCCN2C)nc2c1CCN(c1cccc3cccc(Cl)c13)C2 [Example 21, (S,E)-4-((2-((7-(8-chloronaphthalen-1-yl)-2-((1-methylpyrrolidin-2-yl)methoxy)-5,6,7,8-tetrahydropyrido[3,4-d]pyrimidin-4-yl)(methyl)amino)ethyl)amino)-4-oxobut-2-enoic acid]	> 500 nM
CN(c1nc(OCC23CCCN2CCC3)nc2c1CCN(c1cccc3cccc(Cl)c13)C2)[C@@H]1CCN(C(=O)/C=C/c2nc(C(C)(C)C)no2)C1 [Example 149, (R,E)-3-(3-(tert-butyl)-1,2,4-oxadiazol-5-yl)-1-(3-((7-(8-chloronaphthalen-1-yl)-2-((hexahydro-1H-pyrrolizin-7a-yl)methoxy)-5,6,7,8-tetrahydropyrido[3,4-d]pyrimidin-4-yl)(methyl)amino)pyrrolidin-1-yl)prop-2-en-1-one]	10 to 100 nM
COC(=O)/C=C/C(=O)N1CC(CN(C)c2nc(OC[C@@H]3CCCN3C)nc3c2CCN(c2cccc4cccc(Cl)c24)C3)C1 [Example 16, methyl(S,E)-4-(3-(((7-(8-chloronaphthalen-1-yl)-2-((1-methylpyrrolidin-2-yl)methoxy)-5,6,7,8-tetrahydropyrido[3,4-d]pyrimidin-4-yl)(methyl)amino)methyl)azetidin-1-yl)-4-oxobut-2-enoate]	10 to 100 nM
Cc1nccc(/C=C/C(=O)N2CCC(Nc3nc(OC[C@@]45CCCN4C[C@H](F)C5)nc4c(F)c(-c5cccc6cccc(Cl)c56)ncc34)CC2)n1 [Example 261, (E)-1-(4-((7-(8-chloronaphthalen-1-yl)-8-fluoro-2-(((2R,7aS)-2-fluorotetrahydro-1H-pyrrolizin-7a(5H)-yl)methoxy)pyrido[4,3-d]pyrimidin-4-yl)amino)piperidin-1-yl)-3-(2-methylpyrimidin-4-yl)prop-2-en-1-one]	> 500 nM
C=CS(=O)(=O)CCCN(C)c1nc(OC[C@@H]2CCCN2C)nc2c1CCN(c1cccc3cccc(Cl)c13)C2 [Example 46, (S)-7-(8-chloronaphthalen-1-yl)-N-methyl-2-((1-methylpyrrolidin-2-yl)methoxy)-N-(3-(vinylsulfonyl)propyl)-5,6,7,8-tetrahydropyrido[3,4-d]pyrimidin-4-amine]	> 500 nM

Next, values leading:

IC50	Compound
< 10 nM	C=CC(=O)N1CC[C@@H](N(C)c2nc(OC[C@@]34CCCN3C[C@H](F)C4)nc3c(F)c(-c4cc(O)cc5ccccc45)ncc23)C1 [Example 158, 1-((R)-3-((8-fluoro-2-(((2R,7aS)-2-fluorohexahydro-1H-pyrrolizin-7a-yl)methoxy)-7-(3-hydroxynaphthalen-1-yl)pyrido[4,3-d]pyrimidin-4-yl)(methyl)amino)pyrrolidin-1-yl)prop-2-en-1-one]
< 10 nM	C#Cc1c(F)ccc2cccc(-c3ncc4c(N(C)[C@@H]5CCN(C(=O)/C=C/CN6C[C@@H]7C[C@H]6CO7)C5)nc(OC[C@@]56CCCN5C[C@H](F)C6)nc4c3F)c12 [Example 291, (E)-4-((1S,4S)-2-oxa-5-azabicyclo[2.2.1]heptan-5-yl)-1-((R)-3-((7-(8-ethynyl-7-fluoronaphthalen-1-yl)-8-fluoro-2-(((2R,7aS)-2-fluorotetrahydro-1H-pyrrolizin-7a(5H)-yl)methoxy)pyrido[4,3-d]pyrimidin-4-yl)(methyl)amino)pyrrolidin-1-yl)but-2-en-1-one]
10 to 100 nM	C#Cc1c(F)ccc2cccc(-c3ncc4c(N(C)[C@@H]5CCN(C(=O)/C=C/c6nc(C)ncc6F)C5)nc(OC[C@@]56CCCN5C[C@H](F)C6)nc4c3F)c12 [Example 301, (E)-1-((R)-3-((7-(8-ethynyl-7-fluoronaphthalen-1-yl)-8-fluoro-2-(((2R,7aS)-2-fluorohexahydro-1H-pyrrolizin-7a-yl)methoxy)pyrido[4,3-d]pyrimidin-4-yl)(methyl)amino)pyrrolidin-1-yl)-3-(5-fluoro-2-methylpyrimidin-4-yl)prop-2-en-1-one]
10 to 100 nM	C=CC(=O)N1C[C@H](F)[C@@H](N(C)c2nc(OC[C@@]34CCCN3C[C@H](F)C4)nc3c(F)c(-c4cccc5cccc(Cl)c45)ncc23)C1 [Example 73, 1-((3S,4S)-3-((7-(8-chloronaphthalen-1-yl)-8-fluoro-2-(((2R,7aS)-2-fluorohexahydro-1H-pyrrolizin-7a-yl)methoxy)pyrido[4,3-d]pyrimidin-4-yl)(methyl)amino)-4-fluoropyrrolidin-1-yl)prop-2-en-1-one]

Same assay, conditions: additional exemplary compounds; KRAS G12C and cRAF binding; read-out: RAF1 RBD IC50

Compound	IC50
C=CS(=O)(=O)CCN(C)c1nc(OC[C@@H]2CCCN2C)nc2c1CCN(c1cccc3ccc(F)c(Cl)c13)C2	100 to 500 nM
CN(CCS(=O)(=O)/C=C/CC1CC1)c1nc(OC[C@@H]2CCCN2C)nc2c(F)c(-c3cccc4cccc(Cl)c34)ncc12	> 500 nM
C=CC(=O)N1C[C@H](N(C)c2nc(OCC34CCCN3CCC4)nc3c2CCN(c2cccc4cccc(Cl)c24)C3)C[C@@H]1C#N	100 to 500 nM
CCN(CC)C/C=C/S(=O)(=O)CCN(C)c1nc(OC[C@@H]2CCCN2C)nc2c(F)c(-c3cccc4cccc(Cl)c34)ncc12	10 to 100 nM
CN(C)C/C=C/S(=O)(=O)C1CCCN(c2nc(OCC34CCCN3CCC4)nc3c2CCN(c2cccc4cccc(Cl)c24)C3)C1 (stereo not shown)	10 to 100 nM
CN(c1nc(OCC23CCCN2CCC3)nc2c1CCN(c1cccc3ccc(F)c(Cl)c13)C2)[C@@H]1CCN(C#N)C1	10 to 100 nM
C=CC(=O)N1C[C@@H]2C[C@H]1CN2c1nc(OCC23CCCN2CCC3)nc2c1CCN(c1cccc3cccc(Cl)c13)C2	> 500 nM
O=C(/C=C/CN1[C@@H]2CC[C@H]1COC2)N1CCN(c2nc(OC[C@@]34CCCN3C[C@H](F)C4)nc3c(F)c(-c4cccc5cccc(Cl)c45)ncc23)C2(CC2)C1	> 500 nM

The next lines start with the values.

IC50	Compound
> 500 nM	C=CC(=O)N1CC[C@@H](N(C)c2nc(OC[C@@]34CCCN3C[C@H](F)C4)nc3c(F)c(-c4cc(OC(F)F)cc5ccccc45)ncc23)C1
100 to 500 nM	C=CC(=O)N1CC[C@@H](N(C)c2nc(OC[C@]34CCCN3C[C@H](F)C4)nc3c(F)c(-c4cccc5cccc(Cl)c45)ncc23)C1
> 500 nM	O=C(/C=C/CN1CCOCC1)N1CC2(CCN(c3nc(OC[C@@]45CCCN4C[C@H](F)C5)nc4c(F)c(-c5cccc6cccc(Cl)c56)ncc34)C2)C1
10 to 100 nM	C=CC(=O)N1CC[C@@H](N(C)c2nc(OC[C@@]34CCCN3C[C@H](F)C4)nc3c(F)c(-c4cccc5cccc(Cl)c45)ncc23)C1
> 500 nM	Cc1cc(/C=C/C(=O)N2CC[C@@H](N(C)c3nc(OCC45CCCN4CCC5)nc4c(F)c(-c5cccc6cccc(Cl)c56)ncc34)C2)on1
10 to 100 nM	CN(C)C/C=C/C(=O)N1CC(CN(C)c2nc(OCC34CCCN3CCC4)nc3c(F)c(-c4cccc5cccc(Cl)c45)ncc23)C1
> 500 nM	C=CC(=O)N1CC[C@@H]1CN(C)c1nc(OC[C@@]23CCCN2C[C@H](F)C3)nc2c(F)c(-c3cccc4cccc(Cl)c34)ncc12
> 500 nM	CN(c1nc(OCC23CCCN2CCC3)nc2c1CCN(c1cccc3cccc(Cl)c13)C2)[C@@H]1CCN(C(=O)/C=C/C2(C)COC2)C1
> 500 nM	C=CC(=O)N1CC(N(C)c2nc(OCC34CCCN3CCC4)nc3c(F)c(-c4cccc5cccc(Cl)c45)ncc23)C1
10 to 100 nM	CN(C)C/C=C/C(=O)N1CC[C@@H](N(C)c2nc(OCC34CCCN3CCC4)nc3c(F)c(-c4cccc5ccc(F)c(Cl)c45)ncc23)C1
> 500 nM	C=CC(=O)N1CC[C@@H](N(C)c2nc(OC[C@]34CCCN3C[C@H](F)C4)nc3c2CCN(c2cccc4cccc(Cl)c24)C3)C1
> 500 nM	C=CC(=O)N1CCC(CNc2nc(OC[C@@]34CCCN3C[C@H](F)C4)nc3c(F)c(-c4cccc5cccc(Cl)c45)ncc23)C1 (stereo partly shown)
10 to 100 nM	N#CN1CCC(N(c2nc(OC[C@@]34CCCN3C[C@H](F)C4)nc3c(F)c(-c4cccc5cccc(Cl)c45)ncc23)C2CC2)C1 (stereo partly shown)
